# Source: ChEMBL document CHEMBL5126591, “Early potential evaluation of lead compounds from a DNA-encoded library by the determination of their thermodynamics through a chromatographic method based on immobilized β2-adrenoceptor” (Bioorg Med Chem, 2022)
# The source made the active and inactive calls. No cut-off for these calls is given here.
# Assays:
# [1] = target: T1, Beta-2 adrenergic receptor (Homo sapiens, UniProt P07550)
# Target sequence in this assay (P07550 whole entry, looked up, the tested form may be a part): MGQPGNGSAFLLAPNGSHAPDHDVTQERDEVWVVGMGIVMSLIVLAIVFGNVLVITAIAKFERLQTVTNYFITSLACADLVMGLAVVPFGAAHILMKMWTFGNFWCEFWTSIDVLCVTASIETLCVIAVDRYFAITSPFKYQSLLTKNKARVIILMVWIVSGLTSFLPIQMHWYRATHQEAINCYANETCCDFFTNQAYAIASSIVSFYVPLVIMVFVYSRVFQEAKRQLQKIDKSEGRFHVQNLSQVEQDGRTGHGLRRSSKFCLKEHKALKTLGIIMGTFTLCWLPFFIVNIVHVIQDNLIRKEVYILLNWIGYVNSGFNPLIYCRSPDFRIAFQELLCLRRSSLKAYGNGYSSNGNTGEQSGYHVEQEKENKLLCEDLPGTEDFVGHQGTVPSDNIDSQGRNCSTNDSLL
# Description: Binding affinity to immobilized Halo tag-fused beta2 adrenoceptor (unknown origin) expressed in Escherichia coli BL21 (DE3) assessed as retention time by chromatographic analysis
# [2] = target: T1, Beta-2 adrenergic receptor; assay: Displacement of [3H]-CGP12,177 from immobilized Halo tag-fused beta2 adrenoceptor (unknown origin) expressed in Escherichia coli BL21 (DE3)
# Target sequence in this assay (P07550 whole entry, the tested form may be a part): as the sequence (P07550 whole entry, looked up, the tested form may be a part) above
# [3] = target: T1, Beta-2 adrenergic receptor; assay: Binding affinity to immobilized Halo tag-fused beta2 adrenoceptor (unknown origin) expressed in Escherichia coli BL21 (DE3) assessed as reduction in retention time by chromatographic analysis
# Target sequence in this assay (P07550 whole entry, looked up, the tested form may be a part): as above
SMILES,Retention time [1],Ka [2],Activity [3]
O=NO,2.4 min,,
CNC(C)Cc1ccccc1OC (centres undefined) [METHOXYPHENAMINE],4.6 min,2.08 10^5/M,
CC1(C)[C@@H](O)CC[C@]2(C)[C@H]3C(=O)C=C4[C@@H]5C[C@@](C)(C(=O)NCCc6ccc(O)cc6)CC[C@]5(C)CC[C@@]4(C)[C@]3(C)CC[C@@H]12,,,Active
